This passage reports IC50 results from patent publication EP4624472A1, “DEGRADER INCLUDING NOVEL C-MET PROTEIN LIGAND AND PHARMACEUTICAL COMPOSITION INCLUDING SAME” (Innocure Therapeutics, Inc., priority 2022, dated 2024).

The test system of one test is SNU-638. Briefly: In vitro cell viability assay (cancer cell anti-proliferative activity), SNU-638. The test is classed as cell-based, human. As to conditions: SNU-638 cells, treated 72 hours, absorbance at 450 nm, read-out: In vitro cell viability assay (IC50, nM) SNU-638. The protocol: (§1) The c-MET overexpressing human gastric cancer cell lines MKN45 and SNU638 were cultured in RPMI medium with 10% fetal bovine serum, penicillin (100 U/ml), and streptomycin ([…]), and the c-MET exon 14 skipping mutant human gastric cancer cell line Hs746T was cultured in DMEM media. The c-MET overexpressing human lung cancer cell line EBC-1 was cultured in MEM media with the addition of 10% fetal bovine serum, penicillin (100U/ml), and streptomycin ([…]). The normal cell line WI-38 derived from human lung tissue was cultured in EMEM medium with the addition of 10% fetal bovine serum, penicillin (100U/ml), and streptomycin ([…]).
(§2) The compound synthesized in accordance with the present invention was prepared with a raw material solution of 10 mM dissolved in DMSO (dimethyl sulfoxide), and was sequentially diluted and processed.
(§3) In order to evaluate the inhibitory activity on cell growth, cells were dispensed in a 96-well plate at a concentration of 5,000 cells/well and then treated with the compound of the present invention prepared at various concentrations for 72 hours. The absorbance measurement at 450 nm was calculated using the GraphicPad Prism 8.0 software. The IC50 value (concentration of the compound achieving 50% cytostatic inhibition) is the average value of the measured results. […]

The next test concerns EBC-1. In words: In vitro cell viability assay (cancer cell anti-proliferative activity), EBC-1. In kind it is cell-based, human. As to conditions: EBC-1 cells, treated 72 hours, absorbance at 450 nm, read-out: In vitro cell viability assay (IC50, nM) EBC-1. As to the method:
as §1, §2, §3

Where two headings read alike, the source gives them in different places.

Regarding “3-(6-oxo-1-(3-(5-(piperazine-1-yl)pyrimidine-2-yl)benzyl)-1,6-dihydropyridazine-3-yl)benzonitrile [Example C-6]”, the IC50 in the test on SNU-638 and in the test with EBC-1 was not above 100 nM each time.
Regarding `CN1CCN(Cc2ccc(-c3cnc(N4CCO[C@H](Cn5nnc6nc(-c7cnn(C)c7)cnc65)C4)nc3)cc2)CC1` [ABN401, reference compound], the half-maximal inhibitory concentration (IC50) with SNU-638 (Homo sapiens) and in the test with EBC-1 (Homo sapiens) was not above 100 nM in each case.
For `Cn1cc(-c2cnc3c(nnn3C[C@@H]3CN(c4ncc(N5CCN(CC6CN(C(=O)OC(C)(C)C)C6)CC5)cn4)CCO3)n2)cn1` [Example B-1, tert-butyl(S)-3-((4-(2-(2-((5-(1-methyl-1H-pyrazole-4-yl)-1H-[1,2,3]triazolo[4,5-b]pyrazine-1-yl)methyl)morpholino)pyrimidine-5-il)ppiperazine-1-il)methyl)azetidine-1-carboxylate], the IC50 in the test on SNU-638 (Homo sapiens) and in the test on EBC-1 (Homo sapiens) was not above 100 nM in each case.
`Cn1cc(-c2cnc3c(nnn3C[C@@H]3CN(c4ncc(N5CCN(CC6CNC6)CC5)cn4)CCO3)n2)cn1` [Example B-2]: the concentration for half-maximal inhibition (IC50) with SNU-638 (Homo sapiens) and in the test on EBC-1 (Homo sapiens) was not above 100 nM in each case.
`CN1CC(CN2CCN(c3cnc(N4CCO[C@H](Cn5nnc6nc(-c7cnn(C)c7)cnc65)C4)nc3)CC2)C1` [Example B-3, (S)-2-((5-(1-methyl-1H-pyrazole-4-yl)-1H-[1,2,3]triazolo[4,5-b]pyrazine-1-yl)methyl)-4-(5-(4-((1-methylazetidine-3-yl)methyl)piperazine-1-il)pyrimidine-2-yl)morpholine]: the IC50 in the test with SNU-638 (Homo sapiens) and with EBC-1 (Homo sapiens) was not above 100 nM each time.
As for `Cn1cc(-c2cnc3c(nnn3C[C@@H]3CN(c4ncc(N5CC(CN6CCN(C(=O)OCc7ccccc7)CC6)C5)cn4)CCO3)n2)cn1` [Example B-4], the concentration for half-maximal inhibition (IC50) with SNU-638 (Homo sapiens) and with EBC-1 (Homo sapiens) was not above 100 nM throughout.
Consider `Cn1cc(-c2cnc3c(nnn3C[C@@H]3CN(c4ncc(N5CC(CN6CCNCC6)C5)cn4)CCO3)n2)cn1` [Example B-5, (S)-2-((5-(1-methyl-1H-pyrazole-4-yl)-1H-[1,2,3]triazolo[4,5-b]pyrazine-1-yl)methyl)-4-(5-(3-(piperazine-1-ylmethyl)azetidine-1-il)pyrimidine-2-yl)morpholine], for which the concentration for half-maximal inhibition (IC50) in the test on SNU-638 (Homo sapiens) and in the test on EBC-1 (Homo sapiens) was not above 100 nM throughout.
Regarding `Cn1cc(-c2cnc3c(nnn3C[C@@H]3CN(c4ncc(N5CC(COCc6ccccc6)C5)cn4)CCO3)n2)cn1` [Example B-6, (S)-4-(5-(3-((benzyloxy)methyl)azetidine-1-il)pyrimidine-2-yl)-2-((5-(1-methyl-1H-pyrazole-4-yl)-1H-[1,2,3]triazolo[4,5-b]pyrazine-1-yl)methyl)morpholine], the IC50 in the test with SNU-638 (Homo sapiens) and in the test on EBC-1 (Homo sapiens) was not above 100 nM in each case.
With `Cn1cc(-c2cnc3c(nnn3C[C@@H]3CN(c4ncc(N5CC(CO)C5)cn4)CCO3)n2)cn1` [Example B-7, (S)-(1-(2-(2-((5-(1-methyl-1H-pyrazole-4-yl)-1H-[1,2,3]triazolo[4,5-b]pyrazine-1-yl)methyl)morpholino)pyrimidine-5-il)azetidine-3-yl)methanol], the IC50 in the test with SNU-638 (Homo sapiens) and in the test on EBC-1 (Homo sapiens) was not above 100 nM each time.
As for `Cc1ccc(S(=O)(=O)OCC2CN(c3cnc(N4CCO[C@H](Cn5nnc6nc(-c7cnn(C)c7)cnc65)C4)nc3)C2)cc1` [Example B-8, (S)-(1-(2-(2-((5-(1-methyl-1H-pyrazole-4-yl)-1H-[1,2,3]triazolo[4,5-b]pyrazine-1-yl)methyl)morpholino)pyrimidine-5-il)azetidine-3-yl)methyl 4-methylbenzenesulfonate], the IC50 with SNU-638 (Homo sapiens) and with EBC-1 (Homo sapiens) was not above 100 nM in each case.
As for `Cn1cc(-c2cnc3c(nnn3C[C@@H]3CN(c4ncc(N5CC(CN6CCN(C(=O)OC(C)(C)C)CC6)C5)cn4)CCO3)n2)cn1` [Example B-9], the concentration for half-maximal inhibition (IC50) in the test with SNU-638 (Homo sapiens) and with EBC-1 (Homo sapiens) was not above 100 nM throughout.
For `CN1CCN(CC2CN(c3cnc(N4CCO[C@H](Cn5nnc6nc(-c7cnn(C)c7)cnc65)C4)nc3)C2)CC1` [Example B-10, (S)-2-((5-(1-methyl-1H-pyrazole-4-yl)-1H-[1,2,3]triazolo[4,5-b]pyrazin-1-yl)methyl)-4-(5-(3-((4-methylpiperazine-1-yl)methyl)azetidine-1-il)pyrimidine-2-yl)morpholine], the concentration for half-maximal inhibition (IC50) in the test on SNU-638 (Homo sapiens) and in the test on EBC-1 (Homo sapiens) was not above 100 nM each time.
Consider `COc1ccc(COCC2CN(c3cnc(N4CCO[C@H](Cn5nnc6nc(-c7cnn(C)c7)cnc65)C4)nc3)C2)cc1` [Example B-11, (S)-4-(5-(3-(((4-methoxybenzyl)oxy)methyl)azetidine-1-il)pyrimidine-2-yl)-2-((5-(1-methyl-1H-pyrazole-4-yl)-1H-[1,2,3]triazolo[4,5-b]pyrazine-1-yl)methyl)morpholine], for which the IC50 with SNU-638 (Homo sapiens) and with EBC-1 (Homo sapiens) was not above 100 nM throughout.
Regarding `CC(C)(C)OC(=O)Nc1ccc(COCC2CN(c3cnc(N4CCO[C@H](Cn5nnc6nc(-c7cn[nH]c7)cnc65)C4)nc3)C2)cc1` [Example B-12, tert-butyl(S)-(4-(((1-(2-(2-((5-(1H-pyrazole-4-yl)-1H-[1,2,3]triazolo[4,5-b]pyrazine-1-yl)methyl)morpholino)pyrimidine-5-il)azetidine-3-il)methoxy)methyl)phenyl)carbamate], the IC50 in the test on SNU-638 and with EBC-1 was not above 1000 nM throughout.
Take `Cn1cc(-c2cnc3c(nnn3C[C@@H]3CN(c4ncc(N5CC(COCc6ccc(NC(=O)OC(C)(C)C)nc6)C5)cn4)CCO3)n2)cn1` [Example B-13]: the half-inhibitory concentration (IC50) in the test with SNU-638 (Homo sapiens) and with EBC-1 (Homo sapiens) was not above 1000 nM in each case.
Regarding `CC(C)(C)OC(=O)N1CCO[C@@H](COc2cnc(-c3cccc(Cn4nc(-c5cccc(C#N)c5)ccc4=O)c3)nc2)C1` [Example C-1, tert-butyl(2R)-2-(((2-(3-((3-(3-cyanophenyl)-6-oxopyridazin-1(6H)-yl)methyl)phenyl)pyrimidine-5-yl)oxy)methyl)methyl-4-carboxylate], the IC50 with SNU-638 (Homo sapiens) and in the test on EBC-1 (Homo sapiens) was not above 100 nM each time.
In the case of `N#Cc1cccc(-c2ccc(=O)n(Cc3cccc(-c4ncc(OC[C@@H]5CNCCO5)cn4)c3)n2)c1` [Example C-2, (S)-3-(1-(3-(5-(morpholine-2-ylmethoxy)pyrimidine-2-yl)benzyl)-6-oxo-1,6-dihydropyridazine-3-yl)benzonitrile], the IC50 in the test on SNU-638 (Homo sapiens) and with EBC-1 (Homo sapiens) was not above 100 nM each time.
As to `CC(C)(C)OC(=O)N1CCN(CCOc2cnc(-c3cccc(Cn4nc(-c5cccc(C#N)c5)ccc4=O)c3)nc2)CC1` [Example C-3], the 50% inhibitory concentration (IC50) with SNU-638 (Homo sapiens) and in the test with EBC-1 (Homo sapiens) was not above 100 nM each time.
For `N#Cc1cccc(-c2ccc(=O)n(Cc3cccc(-c4ncc(OCCN5CCNCC5)cn4)c3)n2)c1` [Example C-4, 3-(6-oxo-1-(3-(5-(2-(piperazine-1-yl)ethoxy)pyrimidine-2-yl)benzyl)-1,6-dihydropyridazine-3-yl)benzonitrile], the IC50 in the test on SNU-638 (Homo sapiens) and with EBC-1 (Homo sapiens) was not above 100 nM each time.
For `CC(C)(C)OC(=O)N1CCN(c2cnc(-c3cccc(Cn4nc(-c5cccc(C#N)c5)ccc4=O)c3)nc2)CC1` [Example C-5], the concentration for half-maximal inhibition (IC50) with SNU-638 and in the test with EBC-1 was not above 100 nM each time.
